Assay results reported in ChEMBL document CHEMBL2074142, “Interaction of anionic cephalosporins with the intestinal and renal peptide transporters PEPT 1 and PEPT 2” (Biochim Biophys Acta, 1997).

Legend:
Type in all cases: functional, cell-based
[1] = molecular target: T1, Solute carrier family 15 member 2 (Rattus norvegicus, UniProt Q63424); test: TP_TRANSPORTER: inhibition of Gly-Sar uptake (Gly-Sar: 5 uM) in SKPT cells
T1 sequence (Q63424 whole entry): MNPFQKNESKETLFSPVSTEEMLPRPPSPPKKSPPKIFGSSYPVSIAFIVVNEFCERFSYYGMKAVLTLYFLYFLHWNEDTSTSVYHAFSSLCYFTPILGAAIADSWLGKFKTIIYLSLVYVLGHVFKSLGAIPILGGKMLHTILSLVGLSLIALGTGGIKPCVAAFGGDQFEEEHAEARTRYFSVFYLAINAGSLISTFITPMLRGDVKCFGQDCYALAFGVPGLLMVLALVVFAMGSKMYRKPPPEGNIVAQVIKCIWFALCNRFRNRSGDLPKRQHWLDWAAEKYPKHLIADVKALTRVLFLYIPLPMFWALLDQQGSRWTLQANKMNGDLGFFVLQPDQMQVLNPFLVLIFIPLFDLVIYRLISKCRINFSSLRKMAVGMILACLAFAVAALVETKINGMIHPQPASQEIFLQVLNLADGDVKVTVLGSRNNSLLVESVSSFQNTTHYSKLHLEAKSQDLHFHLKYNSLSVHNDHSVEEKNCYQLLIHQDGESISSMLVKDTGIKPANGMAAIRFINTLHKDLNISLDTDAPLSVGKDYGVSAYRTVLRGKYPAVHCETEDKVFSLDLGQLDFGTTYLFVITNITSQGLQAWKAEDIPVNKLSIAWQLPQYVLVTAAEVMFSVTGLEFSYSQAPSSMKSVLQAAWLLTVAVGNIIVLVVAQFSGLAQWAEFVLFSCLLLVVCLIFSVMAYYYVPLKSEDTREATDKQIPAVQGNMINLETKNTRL

[2] = molecular target: T2, Solute carrier family 15 member 1 (Homo sapiens) (UniProt P46059); test: TP_TRANSPORTER: inhibition of Gly-Sar uptake (Gly-Sar: 20 uM, Cefdinir: 10000 uM) in PEPT1-expressing HeLa cells
T2 sequence (whole entry): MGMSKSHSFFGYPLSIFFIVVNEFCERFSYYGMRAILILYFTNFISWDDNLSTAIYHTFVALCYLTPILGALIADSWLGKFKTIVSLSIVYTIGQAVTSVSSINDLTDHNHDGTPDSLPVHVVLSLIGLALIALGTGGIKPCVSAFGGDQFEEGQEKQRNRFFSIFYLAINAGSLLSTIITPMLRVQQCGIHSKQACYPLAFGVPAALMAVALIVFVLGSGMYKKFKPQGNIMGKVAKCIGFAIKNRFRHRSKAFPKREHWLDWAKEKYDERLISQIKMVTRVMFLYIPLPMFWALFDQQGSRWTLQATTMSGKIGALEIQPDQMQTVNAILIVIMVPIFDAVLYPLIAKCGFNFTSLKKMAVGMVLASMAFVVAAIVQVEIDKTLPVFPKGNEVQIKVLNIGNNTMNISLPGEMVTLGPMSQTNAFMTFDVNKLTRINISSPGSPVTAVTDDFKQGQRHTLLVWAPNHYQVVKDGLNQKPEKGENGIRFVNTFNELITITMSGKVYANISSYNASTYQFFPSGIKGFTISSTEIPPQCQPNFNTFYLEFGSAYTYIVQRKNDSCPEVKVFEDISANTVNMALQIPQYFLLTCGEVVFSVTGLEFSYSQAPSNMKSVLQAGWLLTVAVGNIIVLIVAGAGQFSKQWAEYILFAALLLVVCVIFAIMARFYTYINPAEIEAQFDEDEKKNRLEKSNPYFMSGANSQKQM

[3] = molecular target: T3, Solute carrier family 15 member 2 (Homo sapiens) (UniProt Q16348); test: TP_TRANSPORTER: inhibition of Gly-Sar uptake (Gly-Sar: 50 uM, Cefdinir: 10000 uM) in PEPT2-expressing HeLa cells
T3 sequence (whole entry): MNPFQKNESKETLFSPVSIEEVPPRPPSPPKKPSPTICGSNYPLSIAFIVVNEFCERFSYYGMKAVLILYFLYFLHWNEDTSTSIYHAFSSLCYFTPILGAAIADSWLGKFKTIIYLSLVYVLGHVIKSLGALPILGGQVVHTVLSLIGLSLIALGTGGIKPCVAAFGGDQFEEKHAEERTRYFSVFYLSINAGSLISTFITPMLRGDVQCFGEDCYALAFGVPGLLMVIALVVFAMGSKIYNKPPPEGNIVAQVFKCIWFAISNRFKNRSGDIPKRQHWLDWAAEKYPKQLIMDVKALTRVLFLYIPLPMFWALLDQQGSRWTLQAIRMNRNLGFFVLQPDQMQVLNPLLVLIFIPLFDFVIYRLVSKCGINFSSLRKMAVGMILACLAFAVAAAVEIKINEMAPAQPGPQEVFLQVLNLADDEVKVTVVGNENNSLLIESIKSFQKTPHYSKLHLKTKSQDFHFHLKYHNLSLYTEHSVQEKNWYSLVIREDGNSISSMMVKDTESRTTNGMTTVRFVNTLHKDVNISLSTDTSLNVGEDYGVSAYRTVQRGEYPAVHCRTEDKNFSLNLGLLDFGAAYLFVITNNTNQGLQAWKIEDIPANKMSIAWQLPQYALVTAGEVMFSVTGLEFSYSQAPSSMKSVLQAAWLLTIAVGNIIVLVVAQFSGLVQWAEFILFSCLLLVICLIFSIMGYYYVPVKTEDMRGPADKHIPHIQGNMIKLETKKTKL

[4] = molecular target: T2, Solute carrier family 15 member 1 (Homo sapiens); test: TP_TRANSPORTER: inhibition of Gly-Sar uptake (Gly-Sar: 20 uM, Cefixime: 10000 uM) in PEPT1-expressing HeLa cells
[5] = molecular target: T3, Solute carrier family 15 member 2 (Homo sapiens); test: TP_TRANSPORTER: inhibition of Gly-Sar uptake (Gly-Sar: 50 uM, Cefixime: 10000 uM) in PEPT2-expressing HeLa cells
[6] = molecular target: T4, Solute carrier family 15 member 1 (Homo sapiens, UniProt P46059); test: TP_TRANSPORTER: inhibition of Gly-Sar uptake (Gly-Sar: 5 uM) in Caco-2 cells
T4 sequence (P46059 whole entry): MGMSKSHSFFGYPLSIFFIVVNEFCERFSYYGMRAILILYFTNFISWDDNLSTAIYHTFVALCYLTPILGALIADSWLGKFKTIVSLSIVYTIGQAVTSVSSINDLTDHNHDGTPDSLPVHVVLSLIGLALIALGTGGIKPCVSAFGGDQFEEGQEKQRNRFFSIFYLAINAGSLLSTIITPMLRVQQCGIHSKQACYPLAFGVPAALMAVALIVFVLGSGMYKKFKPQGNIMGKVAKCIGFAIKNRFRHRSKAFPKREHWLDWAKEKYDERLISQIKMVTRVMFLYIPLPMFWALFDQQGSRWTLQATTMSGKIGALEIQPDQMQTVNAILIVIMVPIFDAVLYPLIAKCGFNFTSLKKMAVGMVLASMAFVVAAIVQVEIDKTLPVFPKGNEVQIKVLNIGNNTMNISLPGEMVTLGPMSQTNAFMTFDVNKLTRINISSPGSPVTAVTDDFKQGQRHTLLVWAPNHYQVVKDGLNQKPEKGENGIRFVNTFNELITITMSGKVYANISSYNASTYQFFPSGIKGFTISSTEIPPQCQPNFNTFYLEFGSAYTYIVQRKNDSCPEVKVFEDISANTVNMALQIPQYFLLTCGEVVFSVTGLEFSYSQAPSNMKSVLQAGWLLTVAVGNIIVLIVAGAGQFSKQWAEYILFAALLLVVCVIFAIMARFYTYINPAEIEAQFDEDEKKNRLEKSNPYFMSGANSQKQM

[7] = molecular target: T1, Solute carrier family 15 member 2; test: TP_TRANSPORTER: inhibition of Gly-Sar uptake in SKPT cells
[8] = molecular target: T4, Solute carrier family 15 member 1; test: TP_TRANSPORTER: inhibition of Gly-Sar uptake in PEPT1-expressing HeLa cells
[9] = molecular target: T5, Solute carrier family 15 member 2 (Homo sapiens, UniProt Q16348); test: TP_TRANSPORTER: inhibition of Gly-Sar uptake in PEPT2-expressing HeLa cells
T5 sequence (Q16348 whole entry): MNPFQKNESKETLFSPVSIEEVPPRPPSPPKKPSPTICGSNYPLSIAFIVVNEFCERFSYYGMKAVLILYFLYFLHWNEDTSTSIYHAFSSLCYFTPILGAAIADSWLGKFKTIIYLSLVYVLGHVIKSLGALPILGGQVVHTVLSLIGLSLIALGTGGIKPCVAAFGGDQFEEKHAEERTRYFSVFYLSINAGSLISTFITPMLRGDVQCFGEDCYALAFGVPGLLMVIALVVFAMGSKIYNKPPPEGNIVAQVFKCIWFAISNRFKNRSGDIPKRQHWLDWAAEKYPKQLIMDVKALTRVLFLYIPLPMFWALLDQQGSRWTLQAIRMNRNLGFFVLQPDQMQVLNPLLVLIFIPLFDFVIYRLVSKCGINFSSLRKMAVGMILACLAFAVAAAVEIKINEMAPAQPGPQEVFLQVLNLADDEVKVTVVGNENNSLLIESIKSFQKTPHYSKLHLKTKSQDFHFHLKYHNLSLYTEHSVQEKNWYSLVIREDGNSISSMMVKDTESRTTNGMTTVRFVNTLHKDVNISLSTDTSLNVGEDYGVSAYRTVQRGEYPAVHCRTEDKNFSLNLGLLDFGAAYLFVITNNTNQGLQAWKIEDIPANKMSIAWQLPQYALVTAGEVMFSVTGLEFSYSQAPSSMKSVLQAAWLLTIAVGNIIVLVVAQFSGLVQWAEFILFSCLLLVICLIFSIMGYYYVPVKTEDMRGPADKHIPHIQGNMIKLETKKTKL

[10] = molecular target: T4, Solute carrier family 15 member 1; test: TP_TRANSPORTER: inhibition of Gly-Sar uptake in Caco-2 cells
[11] = substrate: CN(CC(=O)O)C(=O)CN; test: TP_TRANSPORTER: uptake in SKPT cells

## C=CC1=C(C(=O)O)N2C(=O)[C@@H](NC(=O)/C(=N\O)c3csc(N)n3)[C@H]2SC1 [CEFDINIR]
[1]
  IC50: 10000 µM
[2]
  inhibition: 31%
[3]
  Activity: 0.48

## C=CC1=C(C(=O)O)N2C(=O)[C@@H](NC(=O)/C(=N\OCC(=O)O)c3csc(N)n3)[C@H]2SC1 [CEFIXIME]
[1]
  IC50: 3200 µM
[4]
  inhibition: 44%
[5]
  Activity: 0.54
[6]
  IC50: 10000 µM

## Nc1nc(/C(=C/CC(=O)O)C(=O)N[C@@H]2C(=O)N3C(C(=O)O)=CCS[C@H]23)cs1 [CEFTIBUTEN]
[7]
  Ki: 380 µM
[8]
  Ki: 710 µM
[9]
  Ki: 90 µM
[10]
  Ki: 870 µM

B1: Solute carrier family 15 member 2 (Rattus norvegicus), Q63424 (protein)
chain: MNPFQKNESKETLFSPVSTEEMLPRPPSPPKKSPPKIFGSSYPVSIAFIVVNEFCERFSYYGMKAVLTLYFLYFLHWNEDTSTSVYHAFSSLCYFTPILGAAIADSWLGKFKTIIYLSLVYVLGHVFKSLGAIPILGGKMLHTILSLVGLSLIALGTGGIKPCVAAFGGDQFEEEHAEARTRYFSVFYLAINAGSLISTFITPMLRGDVKCFGQDCYALAFGVPGLLMVLALVVFAMGSKMYRKPPPEGNIVAQVIKCIWFALCNRFRNRSGDLPKRQHWLDWAAEKYPKHLIADVKALTRVLFLYIPLPMFWALLDQQGSRWTLQANKMNGDLGFFVLQPDQMQVLNPFLVLIFIPLFDLVIYRLISKCRINFSSLRKMAVGMILACLAFAVAALVETKINGMIHPQPASQEIFLQVLNLADGDVKVTVLGSRNNSLLVESVSSFQNTTHYSKLHLEAKSQDLHFHLKYNSLSVHNDHSVEEKNCYQLLIHQDGESISSMLVKDTGIKPANGMAAIRFINTLHKDLNISLDTDAPLSVGKDYGVSAYRTVLRGKYPAVHCETEDKVFSLDLGQLDFGTTYLFVITNITSQGLQAWKAEDIPVNKLSIAWQLPQYVLVTAAEVMFSVTGLEFSYSQAPSSMKSVLQAAWLLTVAVGNIIVLVVAQFSGLAQWAEFVLFSCLLLVVCLIFSVMAYYYVPLKSEDTREATDKQIPAVQGNMINLETKNTRL
[11]
  Km: 74.5 µM
